Read-outs that look alike come from different tables or passages of the source.
Test: Stability and biodistribution of prodrugs in vivo (HPLC of plasma and tissues)
Parameters: species or system mice (CD-1 nude; BALB/C where indicated)
Settings: 50 mg/kg i.p. or i.v., CD-1 nude mice; for remaining at 0.5 h / remaining at 2 h / concentration at 0.5 h / concentration at 2 h: mouse, 50 mg/kg; for concentration at 0.5 h / concentration at 2 h: read-out: concentration of prodrug in plasma
[1] = cecum, CECUM, 30 min, read-out: stability: percentage of material observed as intact prodrug, cecum
[2] = cecum, CECUM, 120 min, read-out: stability: percentage of material observed as intact prodrug, cecum
[3] = kidney, KIDNEY, 30 min, read-out: stability: percentage of material observed as intact prodrug, kidney
[4] = kidney, KIDNEY, 120 min, read-out: stability: percentage of material observed as intact prodrug, kidney
[5] = large intestine, LARGE INTESTINE, 30 min, read-out: stability: percentage of material observed as intact prodrug, large intestine
[6] = large intestine, LARGE INTESTINE, 120 min, read-out: stability: percentage of material observed as intact prodrug, large intestine
[7] = liver, LIVER, 30 min, read-out: stability: percentage of material observed as intact prodrug, liver (converted)
[8] = liver, LIVER, 120 min, read-out: stability: percentage of material observed as intact prodrug, liver
[9] = plasma, PLASMA, 30 min, read-out: stability: percentage of material observed as intact prodrug, plasma
[10] = plasma, PLASMA, 120 min, read-out: stability: percentage of material observed as intact prodrug, plasma
[11] = small intestine, SMALL INTESTINE, 30 min, read-out: stability: percentage of material observed as intact prodrug, small intestine
[12] = small intestine, SMALL INTESTINE, 120 min, read-out: stability: percentage of material observed as intact prodrug, small intestine
[13] = spleen, SPLEEN, 30 min, read-out: stability: percentage of material observed as intact prodrug, spleen
[14] = tumor, TUMOR, 30 min, read-out: stability: percentage of material observed as intact prodrug, tumor
[15] = tumor, TUMOR, 120 min, read-out: stability: percentage of material observed as intact prodrug, tumor
[16] = spleen, SPLEEN, 120 min, read-out: stability: percentage of material observed as intact prodrug, spleen

SMILES | concentration of prodrug in cecum (CECUM, 30 min) | concentration of prodrug in cecum (CECUM, 120 min) | concentration of prodrug in kidney (KIDNEY, 30 min) | concentration of prodrug in kidney (KIDNEY, 120 min) | concentration of prodrug in large intestine (LARGE INTESTINE, 30 min) | concentration of prodrug in large intestine (LARGE INTESTINE, 120 min) | concentration of prodrug in liver (LIVER, 30 min) | concentration of prodrug in liver (LIVER, 120 min) | concentration of prodrug in small intestine (SMALL INTESTINE, 30 min) | concentration of prodrug in small intestine (SMALL INTESTINE, 120 min) | concentration of prodrug in spleen (SPLEEN, 30 min) | concentration of prodrug in tumor (TUMOR, 30 min) | concentration of prodrug in tumor (TUMOR, 120 min) | remaining at 0.5 h [1] | remaining at 2 h [2] | remaining at 0.5 h [3] | remaining at 2 h [4] | remaining at 0.5 h [5] | remaining at 2 h [6] | remaining at 0.5 h [7] | further results
Cc1nc2ccc3ccc(CNc4ccc(C(=O)N[C@@H](CCC(=O)O)C(=O)N[C@@H](Cc5ccccc5C(=O)O)C(=O)O)c(F)c4)cc3c2c(=O)[nH]1 [Prodrug 4, N-(N-(4(((1,2-dihydro-3-methyl-1-oxobenzo(F)quinazolin-9-yl)methyl)amino)-2-fluorobenzoyl)-L-glutam-1-yl)-2-carboxy-L-phenylanine] | 6.7 nmol/g | 1.3 nmol/g | 94.5 nmol/g | 14.5 nmol/g | 25.3 nmol/g | 45.4 nmol/g | 343.4 nmol/g | 33.3 nmol/g | 188.1 nmol/g | 69.1 nmol/g | 30.9 nmol/g | 6.7 nmol/g | 1.3 nmol/g | 100% | 100% | 100% | 99% | 100% | 100% | 99% | remaining at 2 h [8]: 98%; concentration at 0.5 h (plasma, PLASMA, 30 min): 71.4 µM; remaining at 0.5 h [9]: 100%; concentration at 2 h (plasma, PLASMA, 120 min): 1.4 µM; remaining at 2 h [10]: 99%; remaining at 0.5 h [11]: 99%; remaining at 2 h [12]: 98%; remaining at 0.5 h [13]: 99%; remaining at 0.5 h [14]: 100%; remaining at 2 h [15]: 100%
Cc1nc2ccc3ccc(CNc4ccc(C(=O)N[C@@H](CCC(=O)O)C(=O)N[C@@H](Cc5ccccc5I)C(=O)O)c(F)c4)cc3c2c(=O)[nH]1 [Prodrug 5] | 4.7 nmol/g | 2.9 nmol/g | 42.5 nmol/g | 3.0 nmol/g | 28.4 nmol/g | 1.6 nmol/g | 118.2 nmol/g | 7.5 nmol/g | 32.1 nmol/g | 1.6 nmol/g | 34.3 nmol/g | 4.7 nmol/g | 2.9 nmol/g | 95% | 88% | 83% | 96% | 93% | 8% | 81% | concentration of prodrug in spleen (SPLEEN, 120 min): 3.2 nmol/g; remaining at 2 h [8]: 41%; concentration at 0.5 h (plasma, PLASMA, 30 min): 115 µM; remaining at 0.5 h [9]: 98%; concentration at 2 h (plasma, PLASMA, 120 min): 9.4 µM; remaining at 2 h [10]: 95%; remaining at 0.5 h [11]: 40%; remaining at 2 h [12]: 2%; remaining at 0.5 h [13]: 85%; remaining at 2 h [16]: 81%; remaining at 0.5 h [14]: 95%; remaining at 2 h [15]: 88%
CN(Cc1cnc2nc(N)nc(N)c2n1)c1ccc(C(=O)N[C@@H](CCC(=O)O)C(=O)N[C@@H](Cc2ccccc2C(=O)O)C(=O)O)cc1 [Prodrug 7] | 6.9 nmol/g | 1.5 nmol/g | 55.4 nmol/g | 3.8 nmol/g | 12.1 nmol/g | 91.8 nmol/g | 171.9 nmol/g | 7.5 nmol/g | 127.4 nmol/g | 24.1 nmol/g | 12.4 nmol/g | 6.9 nmol/g | 1.5 nmol/g | 100% | 100% | 100% | 100% | 100% | 100% | 100% | concentration of prodrug in spleen (SPLEEN, 120 min): 1.0 nmol/g; remaining at 2 h [8]: 89%; concentration at 0.5 h (plasma, PLASMA, 30 min): 51.4 µM; remaining at 0.5 h [9]: 100%; concentration at 2 h (plasma, PLASMA, 120 min): 0.2 µM; remaining at 2 h [10]: 100%; remaining at 0.5 h [11]: 100%; remaining at 2 h [12]: 97%; remaining at 0.5 h [13]: 100%; remaining at 2 h [16]: 100%; remaining at 0.5 h [14]: 100%; remaining at 2 h [15]: 100%
